From US20240317756A1, “INHIBITORS OF BRUTON'S TYROSINE KINASE” (Pharmacyclics LLC, priority 2006, published 2024)

What was measured:
BTK = BTK (Homo sapiens (Human), UniProt Q06187); assay: in vitro HotSpot kinase assay, BTK; type: biochemical; conditions: Table 2, 1 uM ATP, one hour incubation with inhibitor
ITK = ITK (Homo sapiens (Human), UniProt Q08881); assay: in vitro HotSpot kinase assay, ITK; type: biochemical; conditions: Table 2, 1 uM ATP, one hour incubation with inhibitor
JAK3 = JAK3 (Homo sapiens (Human), UniProt P52333); assay: in vitro HotSpot kinase assay, JAK3; type: biochemical; conditions: Table 2, 1 uM ATP, one hour incubation with inhibitor
JAK3, sequence (P52333 whole entry, species assumed): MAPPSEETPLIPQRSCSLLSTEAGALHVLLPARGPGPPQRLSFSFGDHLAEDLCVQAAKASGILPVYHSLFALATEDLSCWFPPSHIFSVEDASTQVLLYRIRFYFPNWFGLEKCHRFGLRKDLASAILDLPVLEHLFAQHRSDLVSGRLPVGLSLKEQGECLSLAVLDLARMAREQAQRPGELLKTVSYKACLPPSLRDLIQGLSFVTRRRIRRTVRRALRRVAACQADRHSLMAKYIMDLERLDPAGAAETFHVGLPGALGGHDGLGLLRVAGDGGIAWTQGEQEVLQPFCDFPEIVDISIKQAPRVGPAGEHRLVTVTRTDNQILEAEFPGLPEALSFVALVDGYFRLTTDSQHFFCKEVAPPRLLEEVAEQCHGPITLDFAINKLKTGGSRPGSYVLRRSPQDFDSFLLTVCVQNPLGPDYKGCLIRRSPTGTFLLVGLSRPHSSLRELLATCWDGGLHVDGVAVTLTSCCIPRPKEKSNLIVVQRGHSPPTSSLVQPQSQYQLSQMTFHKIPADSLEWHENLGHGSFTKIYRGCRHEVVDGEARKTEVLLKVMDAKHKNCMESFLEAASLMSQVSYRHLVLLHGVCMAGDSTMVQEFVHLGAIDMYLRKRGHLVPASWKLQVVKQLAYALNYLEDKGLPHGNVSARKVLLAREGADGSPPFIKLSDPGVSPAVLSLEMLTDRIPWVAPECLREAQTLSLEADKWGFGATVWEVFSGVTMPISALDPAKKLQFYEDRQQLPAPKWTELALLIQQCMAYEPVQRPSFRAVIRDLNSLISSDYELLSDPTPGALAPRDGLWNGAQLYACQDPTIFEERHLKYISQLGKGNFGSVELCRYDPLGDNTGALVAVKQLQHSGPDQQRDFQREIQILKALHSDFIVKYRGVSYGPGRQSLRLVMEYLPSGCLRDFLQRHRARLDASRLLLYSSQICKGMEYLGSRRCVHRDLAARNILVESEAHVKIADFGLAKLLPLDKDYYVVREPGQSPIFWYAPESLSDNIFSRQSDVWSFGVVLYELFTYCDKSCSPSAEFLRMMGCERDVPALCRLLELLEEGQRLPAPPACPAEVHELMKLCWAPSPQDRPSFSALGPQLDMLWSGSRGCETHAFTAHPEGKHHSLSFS

[1] = glutathione binding assay; conditions: 5 mM glutathione, 10 μM Btk inhibitor, room temperature, HPLC
Protocol: A calculated value (e.g (1/Btk IC50)/Glutathione conjugation rate) as shown in the Table 2) is used to compare compounds for their ratio between potency at inhibiting their target and their non-specific binding to other SH groups, such as those in glutathione. […] Calculated ratios such as these are used to quantitatively compare different compounds and select compounds for further study.
For the glutathione binding assays, 5 mM glutathione, 10 μM Btk inhibitor in DMSO (10 μL) and 6 equivalents of N′N′ Diisopropyl ethyl amine were combined in 1 mL potassium phosphate buffer. The mixture was incubated for 0, 15, 60 minutes at room temperature and the reaction was stopped with 10 equivalents of formic acid. 50 μL of each reaction mixture was injected on HPLC (Mobil Phase A: 0.2% formic acid in water, Mobile Phase B: 0.2% formic acid in acetonitrile, HPLC Column: Metasil Basic 3μ, 150×4.6 mm, 10% B, Gradient: 10% to 90% B, Detection: UV/Vis […]). Rate of reaction was reported as nmole GSH conjugate conversion per minute from the normalized ratio for area under the curve from HPLC chromatograms for both GSH conjugate and the parent.

lymphoma cell line DOHH2 = assay: DOHH2 cell proliferation assay (Alamar Blue); type: cell-based
Protocol: After 72 hours, cell number was measured using Alamar Blue using manufacturer's protocol. A dilution series of untreated cells was run in parallel to verify that the Alamar Blue assay reliably reflected cell number and that growth conditions were not limiting. […] GI50 values were confirmed in two or more separate experiments for each cell line.
Analogs are generated that are Btk inhibitors and that are cytotoxic to the lymphoma cell line DOHH2. For the DOHH2 cell proliferation assay, cells were seeded in 96-well plates in standard growth media (RPMI+10% fetal calf serum) and compounds were added in a 9-point dilution series ranging from 10 uM to 0.04 uM with DMSO at 0.1% final concentration in all wells. After 72 hours, cell number was measured using Alamar Blue using manufacturer's protocol. A dilution series of untreated cells was run in parallel to verify that the Alamar Blue assay reliably reflected cell number and that growth conditions were not limiting.

EGFR = EGFR (Homo sapiens (Human), UniProt P00533); assay: in vitro HotSpot kinase assay, EGFR; type: biochemical; conditions: Table 2, 1 uM ATP, one hour incubation with inhibitor
LCK = LCK (Homo sapiens (Human), UniProt P06239); assay: in vitro HotSpot kinase assay, LCK; type: biochemical; conditions: Table 2, 1 uM ATP, one hour incubation with inhibitor
LCK, sequence (P06239 whole entry, species assumed): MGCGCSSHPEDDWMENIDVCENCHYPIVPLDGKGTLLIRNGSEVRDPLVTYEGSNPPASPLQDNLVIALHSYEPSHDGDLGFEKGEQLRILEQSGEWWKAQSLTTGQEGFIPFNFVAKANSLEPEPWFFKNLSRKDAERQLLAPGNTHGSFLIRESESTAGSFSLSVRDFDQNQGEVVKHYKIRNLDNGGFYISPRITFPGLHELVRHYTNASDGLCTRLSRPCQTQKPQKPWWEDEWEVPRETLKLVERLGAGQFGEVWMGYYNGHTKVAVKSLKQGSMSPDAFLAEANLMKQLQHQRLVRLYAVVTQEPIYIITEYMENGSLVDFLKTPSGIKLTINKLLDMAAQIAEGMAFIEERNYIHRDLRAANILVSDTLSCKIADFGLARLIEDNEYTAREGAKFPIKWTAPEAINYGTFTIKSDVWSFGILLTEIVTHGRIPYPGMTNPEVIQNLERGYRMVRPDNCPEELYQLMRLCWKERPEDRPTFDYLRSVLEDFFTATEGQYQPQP

[2] = plasma concentrations after oral dosing of rats; type: in vivo; conditions: single oral dose 8 mg/kg each in combination
Protocol: Blood samples were collected at 0.0833 (5 minutes), 0.333 (20 minutes), 1, 3, 6, 9, and 24 hours post-dosing from orally dosed rats.
Male jugular vein cannulated rats were administered a single dose of all test compounds at 8 mg/kg each, in combination by oral gavage. Dose volumes were adjusted based on body weight data collected immediately prior to dosing. Blood samples were collected at 0.0833 (5 minutes), 0.333 (20 minutes), 1, 3, 6, 9, and 24 hours post-dosing from orally dosed rats. The samples were collected into plasma separator Microtainer tubes with anticoagulant (lithium heparin). Plasma samples were prepared by centrifugation (5 min at 5000×g), and at least 100 μL were transferred to storage tubes and stored frozen at −80° C. Plasma samples were thawed and 75 uL aliquots were transferred to centrifuge tubes to which 10 μL aliquots of internal standard solution (1 μg/mL) were added. The samples were not diluted with blank plasma prior to further processing. Soluble proteins were precipitated by the addition of 200 μL of acetonitrile, followed by centrifugation (20 min at 16,000×g). The samples were evaporated to dryness and reconstituted in 200 μL of water containing 0.2% formic acid and 10% methanol. All samples were loaded onto an autosampler maintained at 6° C. and evaluated for concentrations of test compounds using LC-MS/MS.

ITK, sequence (Q08881 whole entry, species assumed): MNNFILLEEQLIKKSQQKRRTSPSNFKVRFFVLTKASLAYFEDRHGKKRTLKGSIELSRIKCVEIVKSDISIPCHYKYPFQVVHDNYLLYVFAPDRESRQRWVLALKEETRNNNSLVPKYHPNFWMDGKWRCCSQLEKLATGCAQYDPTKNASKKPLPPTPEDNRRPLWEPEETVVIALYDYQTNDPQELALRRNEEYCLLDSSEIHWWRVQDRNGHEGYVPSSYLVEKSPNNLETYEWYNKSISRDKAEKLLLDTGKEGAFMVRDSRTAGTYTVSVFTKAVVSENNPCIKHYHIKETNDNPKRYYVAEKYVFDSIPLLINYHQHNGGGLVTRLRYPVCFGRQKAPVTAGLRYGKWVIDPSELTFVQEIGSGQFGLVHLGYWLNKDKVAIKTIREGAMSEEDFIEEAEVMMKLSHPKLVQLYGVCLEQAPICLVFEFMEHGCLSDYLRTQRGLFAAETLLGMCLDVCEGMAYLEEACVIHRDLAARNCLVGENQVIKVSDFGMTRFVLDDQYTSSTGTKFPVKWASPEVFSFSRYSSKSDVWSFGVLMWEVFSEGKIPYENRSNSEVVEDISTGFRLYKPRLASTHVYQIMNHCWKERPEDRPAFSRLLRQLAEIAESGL
BTK, sequence (Q06187 whole entry): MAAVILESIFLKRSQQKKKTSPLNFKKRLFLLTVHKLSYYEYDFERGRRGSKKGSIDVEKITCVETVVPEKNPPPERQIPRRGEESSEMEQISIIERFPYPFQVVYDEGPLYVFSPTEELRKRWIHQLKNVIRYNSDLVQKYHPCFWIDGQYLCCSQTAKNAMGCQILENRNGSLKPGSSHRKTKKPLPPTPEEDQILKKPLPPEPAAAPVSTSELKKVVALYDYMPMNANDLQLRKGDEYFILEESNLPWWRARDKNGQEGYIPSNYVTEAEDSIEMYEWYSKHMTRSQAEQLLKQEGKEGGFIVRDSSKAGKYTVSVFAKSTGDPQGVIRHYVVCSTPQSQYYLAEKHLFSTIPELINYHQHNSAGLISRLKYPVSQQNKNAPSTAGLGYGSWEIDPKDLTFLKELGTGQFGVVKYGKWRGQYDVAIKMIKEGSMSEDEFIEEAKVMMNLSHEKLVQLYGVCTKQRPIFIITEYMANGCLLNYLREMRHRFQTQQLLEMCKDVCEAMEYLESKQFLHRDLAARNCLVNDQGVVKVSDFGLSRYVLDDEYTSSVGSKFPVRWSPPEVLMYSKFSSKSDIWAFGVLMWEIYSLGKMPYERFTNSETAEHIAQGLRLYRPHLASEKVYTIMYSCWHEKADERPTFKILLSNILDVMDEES

Compound | IC50 (BTK) [nM] | IC50 (ITK) [nM] | IC50 (JAK3) [nM] | Glutathione Conj Rate [1] [nmol/min] | GI50 (lymphoma cell line DOHH2; 72 hours) [nM] | IC50 (EGFR) [nM] | IC50 (LCK) [nM] | GI50 (lymphoma cell line DOHH2; Homo sapiens, DOHH-2, 72 hours) [nM] | in vivo half-life [2]
CC#CC(=O)N[C@H]1CC[C@@H](n2nc(-c3ccc(Oc4ccccc4)cc3)c3c(N)ncnc32)CC1 [Compound 22, N-((1s,4s)-4-(4-amino-3-(4-phenoxyphenyl)-1H-pyrazolo[3,4-d]pyrimidin-1-yl)cyclohexyl)but-2-ynamide] | 1.57 | 3690 | > 10000 | 0.014 | < 40 | 156 | 22.1 |  | 
C=CC(=O)N[C@H]1CC[C@H](n2nc(-c3ccc(Oc4ccccc4)cc3)c3c(N)ncnc32)CC1 [Compound 10, N-((1r,4r)-4-(4-amino-3-(4-phenoxyphenyl)-1H-pyrazolo[3,4-d]pyrimidin-1-yl)cyclohexyl)acrylamide] |  | 1950 | > 10000 |  |  |  |  | < 30 | 
Nc1ncnc2c1c(-c1ccc(Oc3ccccc3)cc1)nn2C1CCCN(C(=O)/C=C/CN2CCOCC2)C1 (stereo not drawn) [Compound 5, (E)-1-(3-(4-amino-3-(4-phenoxyphenyl)-1H-pyrazolo[3,4-d]pyrimidin-1-yl)piperidin-1-yl)-4-morpholinobut-2-en-1-one] | 5.6 |  |  | 0.004 |  | 326 |  |  | 
C=CC(=O)N(C)CCn1nc(-c2ccc(Oc3ccccc3)cc2)c2c(N)ncnc21 [Compound 19, N-(2-(4-amino-3-(4-phenoxyphenyl)-1H-pyrazolo[3,4-d]pyrimidin-1-yl)ethyl)-N-methylacrylamide] | 1.58 | 535 | 6000 |  |  |  | 6.62 | 690 | 
CC#CC(=O)N1CCC[C@@H]1Cn1nc(-c2ccc(Oc3ccccc3)cc2)c2c(N)ncnc21 [Compound 15, 1((R)-2-((4-amino-3-(4-phenoxyphenyl)-1H-pyrazolo[3,4-d]pyrimidin-1-yl)methyl)pyrrolidin-1-yl)but-2-yn-1-one] | 4.16 | 21100 | > 10000 |  |  | 289 | 5.9 | 590 | 
CC#CC(=O)N1CCC[C@@H](n2nc(-c3ccc(Oc4ccccc4)cc3)c3c(N)ncnc32)C1 [Compound 17, 1-((R)-3-(4-amino-3-(4-phenoxyphenyl)-1H-pyrazolo[3,4-d]pyrimidin-1-yl)piperidin-1-yl)but-2-yn-1-one] | 2 | 2330 | > 10000 | 0.0243 |  | 435 | 2.07 | 210 | 
C=CC(=O)NCCn1nc(-c2ccc(Oc3ccccc3)cc2)c2c(N)ncnc21 [Compound 23, N-(2-(4-amino-3-(4-phenoxyphenyl)-1H-pyrazolo[3,4-d]pyrimidin-1-yl)ethyl)acrylamide] | 0.32 | 830 | 3310 |  |  | 70.5 | 208 | 110 | 
C=CC(=O)N1CCC(n2nc(-c3ccc(Oc4ccccc4)cc3)c3c(N)ncnc32)CC1 [Compound 6] | 3.1 |  |  | 0.39 |  |  |  |  | 
C=CC(=O)N1CCC[C@@H]1Cn1nc(-c2ccc(Oc3ccccc3)cc2)c2c(N)ncnc21 [Compound 13, 1-((R)-2-((4-amino-3-(4-phenoxyphenyl)-1H-pyrazolo[3,4-d]pyrimidin-1-yl)methyl)pyrrolidin-1-yl)prop-2-en-1-one] | 0.67 | 3010 | 13000 |  |  | 18.8 | 1.56 | 240 | 
Nc1ncnc2c1c(-c1ccc(Oc3ccccc3)cc1)nn2C1CCN(C(=O)/C=C/CN2CCOCC2)CC1 [Compound 20] | 4.07 | 7990 | > 10000 |  | 390 | 304 | 98.6 |  | 
CN(C)C/C=C/C(=O)N[C@H]1CC[C@H](n2nc(-c3ccc(Oc4ccccc4)cc3)c3c(N)ncnc32)CC1 [Compound 18] | 1.38 | 2540 | > 10000 |  | < 30 | 22.5 | 0.76 |  | 
Nc1ncnc2c1c(-c1ccc(Oc3ccccc3)cc1)nn2[C@H]1CC[C@@H](NC(=O)/C=C/CN2CCOCC2)CC1 [Compound 25, (E)-N-((1s,4s)-4-(4-amino-3-(4-phenoxyphenyl)-1H-pyrazolo[3,4-d]pyrimidin-1-yl)cyclohexyl)-4-morpholinobut-2-enamide] | 3.48 | > 10000 | > 10000 |  | 50 | 273 | 25.8 |  | 
Nc1ncnc2c1c(-c1ccc(Oc3ccccc3)cc1)nn2[C@@H]1CCCN(C(=O)/C=C/CN2CCOCC2)C1 [Compound 24, (E)-1-((R)-3-(4-amino-3-(4-phenoxyphenyl)-1H-pyrazolo[3,4-d]pyrimidin-1-yl)piperidin-1-yl)-4-morpholinobut-2-en-1-one] | 0.89 | 476 | 9080 |  |  | 384 | 235 | 440 | 
CN(C)C/C=C/C(=O)N1CCC[C@@H]1Cn1nc(-c2ccc(Oc3ccccc3)cc2)c2c(N)ncnc21 [Compound 11, (E)-1-((R)-2-((4-amino-3-(4-phenoxyphenyl)-1H-pyrazolo[3,4-d]pyrimidin-1-yl)methyl)pyrolidin-1-yl)-4-(dimethylamino)but-2-en-1-one] | 0.92 | 6890 | > 10000 | 0.004525 |  | 18.9 | 2.43 | > 10000 | 
C=CC(=O)N1CCC[C@H]1Cn1nc(-c2ccc(Oc3ccccc3)cc2)c2c(N)ncnc21 [Compound 14, 1-((S)-2-((4-amino-3-(4-phenoxyphenyl)-1H-pyrazolo[3,4-d]pyrimidin-1-yl)methyl)pyrrolidin-1-yl)prop-2-en-1-one] | 0.39 | 592 | 1460 |  |  | 2.3 | 9.24 | 370 | 
Nc1ncnc2c1c(-c1ccc(Oc3ccccc3)cc1)nn2C[C@@H]1CCCN1C(=O)/C=C/CN1CCOCC1 [Compound 21] | 4.15 | > 10000 | > 10000 |  | 1530 | 6240 | 1350 |  | 
(E)-4-(N-(2-hydroxyethyl)-N-methylamino)-1-(3-(4-phenoxyphenyl)-1H-pyrazolo[3,4-d]pyrimidin-1-yl)piperidin-1-yl)but-2-en-1-one [Compound 3] | 21 |  |  |  |  | 74.5 |  |  | 
CC#CC(=O)N1CCC[C@H]1Cn1nc(-c2ccc(Oc3ccccc3)cc2)c2c(N)ncnc21 [Compound 16, 1-((S)-2-((4-amino-3-(4-phenoxyphenyl)-1H-pyrazolo[3,4-d]pyrimidin-1-yl)methyl)pyrrolidin-1-yl)but-2-yn-1-one] | 3.14 | > 10000 | > 10000 |  |  | 2810 | 3.82 | 210 | 
CN(C)C/C=C/C(=O)N[C@H]1CC[C@@H](n2nc(-c3ccc(Oc4ccccc4)cc3)c3c(N)ncnc32)CC1 [Compound 8, (E)-N-((1s,4s)-4-(4-amino-3-(4-phenoxyphenyl)-1H-pyrazolo[3,4-d]pyrimidin-1-yl)cyclohexyl)-4-(dimethylamino)but-2-enamide] | 1.4 |  |  |  |  | 83.4 |  |  | significantly longer in vivo half-life
